Assay results from patent US8309766B2 (Obschestvo S. Organichennoi Otvetstvennostiyu …, priority 2005, dated 2012).
Like-named read-outs stand apart in the source and are kept apart here.

Key:
[1] = test system: "acetic contortions" in mice; test: Analgetic activity on the model "acetic contortions"; type: in vivo, white mongrel mice
Method: The tests were conducted on males of white mongrel mice weighing 22-24 grams. The specific pain response (“contortions”) were elicited by intraperitoneal administration to mice of 0.75% acetic acid solution. The following signs were taken into consideration: the number of seizure contractions of abdominal muscles accompanied by stretching the hind limbs and sagging the back. Analgetic effect was assessed by decrease in the number of contortions in animals in percent to the control for 15 minutes post administration of acetic acid. The technique of the tests is disclosed in Koster R., Anderson M., de Beer B.//Fed. Proc. 1959. V. 18. P. 412. Compounds under testing were administered intraperitoneally (using a probe) at a dose 10 μg/kg 60 minutes prior to injection of the acid. Diclofenac (10 mg/kg) was used as a reference drug. Analgetic effect was calculated according to the formula: […]
wherein Ck is the number of contortions in the control group,
Co is the number of contortions in the test group.

[2] = test system: "hot plate" test in mice; test: Analgetic activity on the model "hot plate"; type: in vivo, white mongrel mice; conditions: for response vs control in vivo at 10 mg/kg / change in vivo at 10 mg/kg / change in vivo at 200 mg/kg / response vs control in vivo at 200 mg/kg: Mus musculus; for response vs control in vivo at 10 mg/kg / Latent time of NT (%): percent of background; for response vs control in vivo at 10 mg/kg / response vs control in vivo at 200 mg/kg: read-out: Latent time of NT (%); for change in vivo at 10 mg/kg / change in vivo at 200 mg/kg: read-out: Analgesia (%)
Method: The tests were conducted on males of white mongrel mice weighing 22-24 grams. The animals were individually placed on a hot plate (manufactured by the firm “Ugo Basile”), a temperature of which remained constant and was equal to 55° C. The following first manifestations of pain reaction were recorded: licking paws, jumping up prior to administration of a substance (background parameters) and 0.5, 1, 2, 3 and 4 hours post administration of a substance. Substances were administered […] (using a probe). A weighed amount of a substance was thoroughly mixed in 0.1 ml Tween 80 until a solution was obtained, then normal saline was added up to a volume of 0.5 ml. Average latent time of nociception threshold (NT) was calculated in every group. The results obtained were expressed in percent of the background values. Analgetic effect (in %) was calculated according to the formula: A−100%=X, wherein A is a background parameter; X is analgetic effect (in %)
A is (time 0.5 to 4 hours post administration×100%): background time
As reference drugs, Analgin (150 mg/kg), Paracetamol (200 mg/kg), Ketorol (10 mg/kg), were used.

[3] = 10 mg/kg, 30 minutes post administration
[4] = 10 mg/kg, 60 minutes post administration
[5] = 10 mg/kg, 120 minutes post administration
[6] = Mus musculus, ip, 0.25 h, dose 10 mg/kg (table title), read-out: Analgetic effect (%)
[7] = Mus musculus, ip, 0.25 h, dose 10 mg/kg (table title), read-out: C, % to the control
[8] = dose 10 mg/kg (table title), 60 minutes prior to acetic acid
[9] = 0.5 h, Paracetamol 200 mg/kg, 30 minutes
[10] = 1 h, Paracetamol 200 mg/kg, 60 minutes
[11] = 2 h, Paracetamol 200 mg/kg, 120 minutes

| Compound | latent time of nociception threshold, M ± m [2, 3] | latent time of nociception threshold, M ± m [2, 4] | latent time of nociception threshold, M ± m [2, 5] | response vs control in vivo at 10 mg/kg ([2]; 0.5 h, 10 mg/kg, 30 minutes) | change in vivo at 10 mg/kg ([2]; 0.5 h, 10 mg/kg, 30 minutes) | response vs control in vivo at 10 mg/kg ([2]; 1 h, 10 mg/kg, 60 minutes) | change in vivo at 10 mg/kg ([2]; 1 h, 10 mg/kg, 60 minutes) | response vs control in vivo at 10 mg/kg ([2]; 2 h, 10 mg/kg, 120 minutes) | change in vivo at 10 mg/kg ([2]; 2 h, 10 mg/kg, 120 minutes) | inhibition in vivo at 10 mg/kg [1, 6] | response vs control in vivo at 10 mg/kg [1, 7] | C ± m (the number of contortions for 15 minutes) [1, 8] | other results |
| --- | --- | --- | --- | --- | --- | --- | --- | --- | --- | --- | --- | --- | --- |
| O=C(O)Cc1ccccc1Nc1c(Cl)cccc1Cl [Diclofenac, reference compound] | – | – | – | – | – | – | – | – | – | – | – | – | C ± m (the number of contortions for 15 minutes) ([1]; Diclofenac 10 μg/kg [sic]): 12.9 ± 2.13 |
| CC(=O)N[C@@H](Cc1ccc(O)cc1)C(=O)NCCc1ccc(O)cc1 [Compound XXIX, acetyltyrosyltyramine] | 6.3 ± 1.2 s | 7.2 ± 0.8 s | 8.0 ± 1.0 s | 197% | 197% | 225% | 125% | 250% | 150% | 42.9% | 57.1% | 15.7 ± 1.9 | – |
| O=C(CCc1ccccc1)N[C@@H](Cc1ccc(O)cc1)C(=O)OCc1ccccc1 [Compound XXX, 3-phenylproponyltyrosine benzyl ester] | 6.9 ± 0.8 s | 9.0 ± 0.9 s | 9.1 ± 1.4 s | – | – | – | – | – | – | – | – | 11.9 ± 1.7 | Analgesia (%) ([2]; 10 mg/kg, 30 minutes): 68.3%; Latent time of NT (%) ([2]; 10 mg/kg, 30 minutes): 168.3%; Analgesia (%) ([2]; 10 mg/kg, 60 minutes): 113.8%; Latent time of NT (%) ([2]; 10 mg/kg, 60 minutes): 213.8%; Analgesia (%) ([2]; 10 mg/kg, 120 minutes): 121.9%; Latent time of NT (%) ([2]; 10 mg/kg, 120 minutes): 221.9%; Analgetic effect, % ([1]; dose 10 mg/kg (table title)): 36.1%; C, % to the control ([1]; dose 10 mg/kg (table title)): 63.9% |
| O=C(Cc1ccc(O)cc1)NCCc1ccc(O)cc1 [Compound VII, p-hydroxyphenylacetyltyramine] | – | 6.9 ± 0.72 s | 8.2 ± 0.94 s | – | – | 134% | 34.5% | 159% | 58.9% | – | – | – | – |
| COC(=O)C(Cc1ccccc1)NC(=O)Cc1ccc(O)cc1 (stereo not shown) [Compound V, p-hydroxyphenylacetylphenylalanine methyl ester] | 4.85 ± 0.39 s | 5.9 ± 0.81 s | 6.58 ± 0.72 s | 130% | 29.7% | 158% | 57.8% | 176% | 75.9% | 39.3% | 60.7% | 16.2 ± 2.6 | – |
| COC(=O)C(Cc1ccc(O)cc1)NC(=O)Cc1ccc(O)cc1 (stereo not shown) [Compound IV, p-hydroxyphenylacetyltyrosine methyl ester] | 5.24 ± 0.88 s | 5.54 ± 0.32 s | 5.93 ± 0.59 s | 104% | 4.2% | 110% | 10.1% | 118% | 17.9% | 22.1% | 77.9% | 20.8 ± 1.9 | – |
| O=C(Cc1ccccc1)NCCc1ccc(O)cc1 [Compound VI, phenylacetyltyramine] | 7.8 ± 0.8 s | 8.3 ± 1.0 s | 6.8 ± 0.5 s | 132% | 32.2% | 141% | 40.7% | 115% | 15.3% | 25.5% | 74.5% | 21.1 ± 1.8 | – |
| CC(=O)N[C@@H](Cc1ccc(O)cc1)C(=O)NCCc1ccccc1 [Compound XXVIII, acetyltyrosylphenylethylamine] | 9.2 ± 1.8 s | 8.1 ± 1.0 s | 11.6 ± 2.5 s | 192% | 91.7% | 169% | 68.8% | 242% | 142% | 42.1% | 57.9% | 15.9 ± 2.4 | – |
| O=C(O)Cc1ccccc1Nc1c(Cl)cccc1Cl [Voltaren, reference compound] | – | – | – | – | – | – | – | – | – | – | – | – | inhibition in vivo at 0.008 mg/kg ([1]; Mus musculus, ip, 0.25 h, Voltaren 8 μg/kg, read-out: Analgetic effect (%)): 44.5%; response vs control in vivo at 0.008 mg/kg ([1]; Mus musculus, ip, 0.25 h, Voltaren 8 μg/kg, read-out: C, % to the control): 55.5%; C ± m (the number of contortions for 15 minutes) ([1]; Voltaren 8 μg/kg): 15.8 ± 2.6 |
| O=C(Cc1ccc(O)cc1)NC(Cc1ccccc1)C(=O)O (stereo not shown) [Compound III, p-hydroxyphenylacetylphenylalanine] | 6.7 ± 0.9 s | 5.9 ± 0.8 s | 7.0 ± 0.6 s | 181% | 81% | 160% | 59.5% | 189% | 89.2% | 39.9% | 60.2% | 19.4 ± 3.3 | – |
| O=C(CCc1ccccc1)NCCc1ccccc1 [Compound XI, 3-phenylpropionylphenylethylamine] | 5.35 ± 0.98 s | 6.49 ± 1.1 s | – | 143% | 43.4% | 174% | 74% | – | – | 38.2% | 61.8% | 21.2 ± 2.5 | latent time of nociception threshold, M ± m ([2]; 10 mg/kg, 180 minutes post administration): 6.27 ± 0.33 s; latent time of nociception threshold, M ± m ([2]; 10 mg/kg, 240 minutes post administration): 4.07 ± 0.26 s; response vs control in vivo at 10 mg/kg ([2]; 3 h, 10 mg/kg, 180 minutes): 141%; change in vivo at 10 mg/kg ([2]; 3 h, 10 mg/kg, 180 minutes): 41.3%; response vs control in vivo at 10 mg/kg ([2]; 4 h, 10 mg/kg, 240 minutes): 136%; change in vivo at 10 mg/kg ([2]; 4 h, 10 mg/kg, 240 minutes): 35.9% |
| CC(=O)Nc1ccc(O)cc1 [Paracetamol, reference compound] | – | – | – | – | – | – | – | – | – | – | – | – | change in vivo at 200 mg/kg [2, 9]: 139%; response vs control in vivo at 200 mg/kg [2, 9]: 239%; change in vivo at 200 mg/kg [2, 10]: 58%; response vs control in vivo at 200 mg/kg [2, 10]: 158%; change in vivo at 200 mg/kg [2, 11]: 92%; response vs control in vivo at 200 mg/kg [2, 11]: 192%; latent time of nociception threshold, M ± m ([2]; Paracetamol 200 mg/kg, 30 minutes): 9.44 ± 1.3 s; latent time of nociception threshold, M ± m ([2]; Paracetamol 200 mg/kg, 60 minutes): 6.24 ± 0.82 s; latent time of nociception threshold, M ± m ([2]; Paracetamol 200 mg/kg, 120 minutes): 7.6 ± 1.15 s |
